Where “and” joins values, the source holds several entries; their conditions need not be identical. Equal values may be shown once. Entries after “also recorded” stand apart in the source; their conditions may differ.
Columns and labels:
[1] = ECoG and sedation in test animals free to move; format: in vivo
Protocol: Some test animals were kept in restraint cases placed in a relatively soundproof room and some were left free to move in metal cases measuring 40×50×30 cm, which were also kept in a relatively quiet environment.
In the test animals which were free to move, the first signs of sedation produced by the intragastric administration of 7.5 mg/kg of compounds 1 and 4 appeared, respectively, at 16 minutes (compound 1) and at 8 minutes (compound 4). […] The duration of the effect was, however, shorter, not exceeding 3 hours under these conditions in contrast to the 5 hour minimum for restricted animals.

[2] = Potentiation of narcotic effect of Veronal; details: in vivo
[3] = Cortical and hippocampal arousal thresholds on stimulation of MRF, median thalamus and posterior hypothalamus; format: in vivo; details: 7.5 mg/kg intragastric
Protocol: The test animals in this study were prepared by the techniques described by Monnier and Gangloff under the preceding study (infra B, page 30). Stimulation consisted of a series of waves delivered at a frequency of 200 c/sec., lasting 0.3 m sec., with a total duration of the stimulus being 5 sec. These shocks were delivered by a Neurovar neurostimulator (Alvar Electronic) coupled with a CRC cathode oscilloscope (type OC 343). Cerebral electrical activity was recorded on a REEGA MINI HUIT electroencephalograph (Alvar Electronic). The test animals were kept in restraint cages in a relatively soundproof room.
The activity of compounds 1 and 4 was tested in a series of six test animals for each compound, with a single dose of 7.5 mg/kg administered by the intragastric route. In each animal, the arousal threshold was determined for two of the three structures tested so that for each compound, each of the three structures stimulated were tested four times.
In making the baseline tracing, the threshold voltage was determined by a finding that the duration of the arousal reaction produced by the 5-second stimulation exceeded the duration of the stimulation by at least 5 seconds, that is, for a minimum of 10 seconds.
The various thresholds were determined every 45 minutes after administration of the compounds, for a total period of four and one-half hours.
The critical value for raising of a threshold was fixed at 0.1 volts. This constituted the maximum variation recorded during 41/2 hours in the control animals.
The results were taken in two forms and then summarized. In the first result, each animal was observed, yielding the values for the thresholds recorded at each time interval as well as the ratios of the values obtained in each of the stimulated structures.

[4] = Convulsions induced by pentamethylenetetrazol in rats; format: in vivo
Protocol: The method utilized was according to the method published by Everett and Richards (1944) and Banziger (1965). The pentamethylenetetrazol was given subcutaneously (125 mg/kg) and the test compounds were given orally suspended in a 1% carboxymethyl cellulose solution.

[5] = Rotarod test, equilibrium (Table 6); format: in vivo
[6] = test system: dorsal hippocampus; experiment: Hippocampal after-discharge (stimulation of dorsal hippocampus); format: in vivo; details: 7.5 mg/kg intragastric; for Duration of Hippocampal After-Discharge: individual animals
Protocol: The test animals for this study were also prepared according to the technique described by Monnier and Gangloff (infra B, page 30) and the animals were kept in restraint cages in a relatively soundproof room.
The activity of test compounds 1 and 4 was assessed in identical groups of test animals for each compound, with identical numbers of animals for hippocampal after-discharges and for amygdaloid after-discharges. A dose of 7.5 mg/kg of each test compound was adminstered by the intragastric route. In each animal, after-discharges were triggered every 45 minutes after the administration of a test compound.
The stimulation consisted of a series of waves with a duration of 3 m sec., delivered at a frequency of 40 c/sec., with 5 seconds as the total duration of the stimulation. The shocks were delivered by a Neurovar neurostimulator (Alvar Electronic), coupled to a CRC cathode oscilloscope (type OC 343). Cerebral electric activity was recorded by REEGA MINI HUIT electroencephalograph (Alvar Electronic).

[7] = Emotional conditioning response (CER) in rats (Brady, Skinner box); format: in vivo
Description: The method utilized that was published by Brady (1956) using a Skinner Box and a combination of a sound, a light and an electrical shock to produce anxiety in the test animals.
The more an animal is anxious, the less important is the score. When a test compound is a powerful anxiolytic, the value of the score is proportional to the dosage.

[8] = Motor coordination in rats (rotarod, Dunham and Miya 1957)
[9] = Comparative tranquilizing effects: four plates test; format: in vivo
Description: The method utilized was the 4 plates test of J. R. Boissier, et al (European J. of Pharm. 1968, Vol. 4, pages 145-151).

[10] = Aggressive behavior elicited by foot shock; format: in vivo; details: oral
Description: The aggressive behavior of test animals was elicited by a conventional foot shock procedure after administration of Compounds 1 and 4.

[11] = Reduction in motor activity between 60 and 90 minutes; format: in vivo; details: for Reduction in Motor Activity Between 60 and 90 Minutes: significance NS (comp. 1), 0.002 (comp. 4)
[12] = Conditioned avoidance response (shuttle box); format: in vivo; details: for Number of Conditioned Avoidance Responses: CMC 1% 16.7 ± 0.3
Protocol: Conditioned avoidance response by trained animals in a conventional shuttle box procedure was determined after oral administration of Compounds 1 and 4.

[13] = 7.5 mg/kg intragastric, animals free to move

C#CCN1C(=O)CN=C(c2ccccc2)c2cc(Cl)ccc21 [Compound 1, 7-chloro-2,3-dihydro-5-phenyl-1-propargyl-1H-1,4-benzodiazepin-2-one]
duration of the ECoG effect [1, 13]: ≤ 3 h
first signs of sedation [1, 13]: 16 min
duration of ECoG effects (three compounds compared) ([1]; unrestricted animals, compound 3 at 10 mg/kg): about 31/2
narcotic effect of a minimal dose of Veronal [2]: potentiate the narcotic effect of a minimal dose of Veronal
effect on arousal pathways (in words) [3]: preferentially reduces the excitability of the hypothalamo-cortical and hippocampal pathways; also recorded: moderately reduced in duration
% of Mean Variation of arousal threshold, Cortex ([3]; MRF stimulation): +57%
% of Mean Variation of arousal threshold, Hippocampus ([3]; MRF stimulation): +50%
% of Mean Variation of arousal threshold, Cortex ([3]; Median Thalamus stimulation): +67%
% of Mean Variation of arousal threshold, Hippocampus ([3]; Median Thalamus stimulation): +73%
% of Mean Variation of arousal threshold, Cortex ([3]; Posterior Hippocampus): +83%
% of Mean Variation of arousal threshold, Hippocampus ([3]; Posterior hypothalamus stimulation): +78%
% Protected Animals ([4]; 5 mg/kg/os, pentamethylenetetrazol 125 mg/kg s.c.): 10%
% Protected Animals ([4]; 10 mg/kg/os, pentamethylenetetrazol 125 mg/kg s.c.): 50%
% Protected Animals ([4]; 20 mg/kg/os, pentamethylenetetrazol 125 mg/kg s.c.): 80%
ED50 ([4]; Rattus norvegicus, oral, protection against pentamethylenetetrazol, read-out: ED50 (and C.L.) (converted)): 10.6 mg/kg
% Protected Animals ([4]; Time 90 min.): 48%
% Protected Animals ([4]; Time 120 min.): 46%
% Protected Animals ([4]; Time 180 min.): 37%
% Protected Animals ([4]; Time 240 min.): 10%
duration of protection against pentamethylenetetrazol compared with compounds 3 or 4 ([4]; rat, in vivo): protects against pentamethylenetetrazol for longer periods of time than compounds 3 or 4
Rotarod Test % of Animals With Unchanged Equilibrium ([5]; 1 mg/kg): 41.7%
Rotarod Test % of Animals With Unchanged Equilibrium ([5]; 3 mg/kg): 58.3%
changes in equilibrium / motor coordination ([5]; in vivo): does not produce changes in motor activity or in equilibrium
effect on duration of hippocampal after-discharge [6]: markedly increased the duration of after-discharges
Duration of Hippocampal After-Discharge ([6]; 45 Mins.): 25 s and 14 s and 23 s and 18 s
Duration of Hippocampal After-Discharge ([6]; 90 Mins.): 27 s and 21 s and 25 s and 11 s and 23 s
Duration of Hippocampal After-Discharge ([6]; 135 Mins.): 27 s and 16 s and 26 s and 19 s and 25 s
Duration of Hippocampal After-Discharge ([6]; 180 Mins.): 25 s and 23 s and 24 s and 27 s
Duration of Hippocampal After-Discharge ([6]; 225 Mins.): 29 s and 26 s and 25 s and 23 s and 34 s
Duration of Hippocampal After-Discharge ([6]; 270 Mins.): 23 s and 26 s and 21 s and 40 s
Number of Responses, After - CER ([7]; 1.25 mg/kg/os): 77.83 ± 20.41
Number of Responses, Before - CER ([7]; 1.25 mg/kg/os): 94.67 ± 13.86
Number of Responses, CER ([7]; 1.25 mg/kg/os): 27.50 ± 11.32
Number of Responses, After - CER ([7]; 2.5 mg/kg/os): 112.30 ± 17.56
Number of Responses, Before - CER ([7]; 2.5 mg/kg/os): 142.10 ± 20.03
Number of Responses, CER ([7]; 2.5 mg/kg/os): 62.10 ± 9.59
Number of Responses, After - CER ([7]; 5 mg/kg/os): 128.75 ± 17.13
Number of Responses, Before - CER ([7]; 5 mg/kg/os): 127.13 ± 20.89
Number of Responses, CER ([7]; 5 mg/kg/os): 63.50 ± 14.96
activity in antagonizing CER compared with Compound 3 ([7]; rat, in vivo): about twice as active as Compound 3
effectiveness in reducing anxiety compared with Composition 4 ([7]; rat, in vivo): twice as effective in reducing anxiety as Composition 4
% Uncoordinated Animals ([8]; 48 mg/kg/os): 25%
% Uncoordinated Animals ([8]; 68 mg/kg/os): 50%
% Uncoordinated Animals ([8]; 96 mg/kg/os): 75%
dose needed for same motor uncoordination as after Compound 3 or 4 ([8]; oral): about five times more
TD50 ([8]; rat, rotarod, po): 67.9 mg/kg
ED50 ([9]; 1 h, 60 min. after administration, doses between 0.5 and 4 mg/kg, confidence limits for P = 0.05): 1.75 mg/kg
Duration of effect ([9]; compounds 1 and 4 compared): comparable
median anxiolytic dose (AD50) compared with compound 4 ([9]; four-plate study): nearly three times less than that of compound 4
anxiolytic effect compared with compound 4 ([9]; in vivo): more effective anxiolytic effect than compound 4
ED50 [10]: 3.3 mg/kg
Reduction in Motor Activity Between 60 and 90 Minutes ([11]; 1 mg/kg): +19%
Reduction in Motor Activity Between 60 and 90 Minutes ([11]; 3 mg/kg): -20%
changes in motor activity / voluntary motility ([11]; in vivo): does not produce changes in motor activity
% Decrease (conditioned avoidance responses) ([12]; 5 mg/kg oral): -12%
Number of Conditioned Avoidance Responses ([12]; 5 mg/kg oral): 14.5 ± 0.7
% Decrease (conditioned avoidance responses) ([12]; 10 mg/kg oral): -19%
Number of Conditioned Avoidance Responses ([12]; 10 mg/kg oral): 13.4 ± 0.7
% Decrease (conditioned avoidance responses) ([12]; 20 mg/kg oral): -17%
Number of Conditioned Avoidance Responses ([12]; 20 mg/kg oral): 13.7 ± 0.9
% Decrease (conditioned avoidance responses) ([12]; 40 mg/kg oral): -44%
Number of Conditioned Avoidance Responses ([12]; 40 mg/kg oral): 9.3 ± 1.5
activity in reducing conditioned avoidance responses compared with Compound 2 ([12]; in vivo): less active than Compound 2
